Measured values reported in US8372885B2, “Organic compounds and their uses” (Novartis AG, priority 2008, dated 2013).

These compounds were tested against T1, P. aeruginosa LpxC (Pseudomonas aeruginosa, UniProt P47205) (assay: biochemical). Conditions: 1 nM P. aeruginosa LpxC, 30 min pre-incubation, 2 μM UDP-3-O-(R-3-hydroxydecanoyl)-GlcNAc, pH 7.5, room temperature; read-out: IC50 (LpxC inhibitory activity).
T1 construct: made in house
T1 sequence (P47205 1-303): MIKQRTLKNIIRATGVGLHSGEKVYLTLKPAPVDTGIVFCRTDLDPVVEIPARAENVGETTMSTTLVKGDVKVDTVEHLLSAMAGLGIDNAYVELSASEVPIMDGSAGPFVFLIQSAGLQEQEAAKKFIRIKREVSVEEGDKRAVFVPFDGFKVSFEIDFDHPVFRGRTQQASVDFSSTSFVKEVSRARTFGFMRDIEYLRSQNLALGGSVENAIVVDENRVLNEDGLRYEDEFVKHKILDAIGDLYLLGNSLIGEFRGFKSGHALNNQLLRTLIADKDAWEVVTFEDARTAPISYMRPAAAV
From the text: The LC-MS/MS method for quantitation of LpxC product was developed using an Agilent 1200 Capillary HPLC system coupled to an Applied Biosystems MDS Sciex 4000QTRAP mass spectrometer. Both instruments are controlled using the Applied Biosystems MDS Sciex Analyst software. LpxC reaction product (UDP-3-O—(R-3-hydroxyacyl)-glucosamine) was produced by hydrolysis of LpxC substrate catalyzed by P. a. LpxC and purified using reversed phase chromatography on a Phenomenex Luna C18(2) 4.6×50 mm column. An LpxC product calibration curve was generated to evaluate the sensitivity and dynamic range of the LC-MS/MS method. Briefly, compounds are pre-incubated with 1 nM P. aeruginosa LpxC for 30 min. at room temperature. Reactions are initiated by the addition of 2 μM UDP-3-O—(R-3-hydroxydecanoyl)-GlcNAc. Reactions are conducted in a 96-well plate with a total volume of 100 μL in each well containing 50 mM Sodium phosphate pH 7.5, 0.005% Trition X-100 for 20 min at room temperature. After quenching with 1.8% HOAc (10 μL of a 20% HOAc added to each well), reaction mixtures are analyzed using the LC-MS/MS method and peak areas are transformed into product concentration using a LpxC product calibration curve. […] For IC50 determinations, peak areas are converted to percent inhibition in Microsoft Excel. Percent inhibition values are plotted vs. log compound concentration using XLfit. Data is fit to the four-parameter logistic equation using the non-linear regression algorithm in XLfit to return the IC50 and hill slope values.
Work on `CC(C)(N)[C@H](NC(=O)c1ccc(OCC#Cc2ccc3c(c2)CCO3)cc1)C(=O)NO` [Example 67] yielded an IC50 of 540 nM.
Work on `CC(C)(N)[C@H](NC(=O)c1ccc(OCC#Cc2ccc(O)cc2)cc1)C(=O)NO` [Example 68] yielded an IC50 of 1900 nM.
With `COc1ccc(C#CCOc2ccc(C(=O)N[C@H](C(=O)NO)C(C)(C)N)cc2)cc1` [Example 69] the IC50 was 413 nM.
For `COc1cccc(C#CCOc2ccc(C(=O)N[C@H](C(=O)NO)C(C)(C)N)cc2)c1` [Example 70], the IC50 was 2 nM.
`COCC#C/C=C/COc1ccc(C(=O)N[C@H](C(=O)NO)C(C)(C)N)cc1` [Example 71] gave an IC50 of 1 nM.
`CC(C)(N)[C@H](NC(=O)c1ccc(OC/C=C/C#CCO)cc1)C(=O)NO` [Example 72] showed an IC50 of 1 nM.
With `CC#CCOc1ccc(C(=O)N[C@H](C(=O)NO)C(C)(C)N)c(O)c1` [Example 74] the IC50 was 3 nM.
For `CC(C)(N)[C@H](NC(=O)c1ccc(OCC#CC2=CCC(N)CC2)cc1)C(=O)NO` (stereo partly shown) [Example 75], the IC50 was 6 nM.
Compound `CC(C)(N)[C@H](NC(=O)c1ccc(OCC#CC2=CCC(O)CC2)cc1)C(=O)NO` (stereo partly shown) [Example 76] has an IC50 of 0.03 nM.
`CC(C)(N)[C@H](NC(=O)c1ccc(OCC#Cc2cccc(CO)c2)cc1)C(=O)NO` [Example 77] was tested, and the IC50 was 0.2 nM.
Work on `CC(C)(N)[C@H](NC(=O)c1ccc(OCC#Cc2cccnc2)cc1)C(=O)NO` [Example 78] yielded an IC50 of 10 nM.
Work on `CC(C)(N)[C@H](NC(=O)c1ccc(OCC#Cc2ccccn2)cc1)C(=O)NO` [Example 79] yielded an IC50 of 1 nM.
`CC(C)(N)[C@H](NC(=O)c1ccc(OCC#Cc2ccccc2)cc1)C(=O)NO` [Example 80] was tested, and the IC50 was 1 nM.
Compound `CC(C)(N)[C@H](NC(=O)c1ccc(OCC#CC2CCC2)cc1)C(=O)NO` [Example 81] has an IC50 of 0.03 nM.
For `CC(C)(N)[C@H](NC(=O)c1ccc(OCC2CC2)cc1)C(=O)NO` [Example 82], the IC50 was 18 nM.
In the case of `CC(C)(N)[C@H](NC(=O)c1ccc(OCCC2CC2)cc1)C(=O)NO` [Example 83], the IC50 is reported as 8 nM.
